Data from paper PMC11302729, “Repurposing Hsp90 inhibitors as antimicrobials targeting two-component systems identifies compounds leading to loss of bacterial membrane integrity” (Microbiology Spectrum, 2024).
Values after ≈ are worked out from the molar mass of the structure shown. Read-outs that look alike come from different tables or passages of the source.

Experiments:
S. aureus PhoR = S. aureus PhoR (Staphylococcus aureus, UniProt Q2FXN7); assay: HK autophosphorylation inhibition, PhoR; assay type: biochemical; details: ± SD, n = 2; 10 mM ATP
Procedure: (§1) Cytoplasmic domains from S. aureus PhoR and E. coli EnvZ as well the CA domain of Thermotoga maritima CheA were cloned in pNIC28-Bsa4 ([54]) plasmid containing His6-tag expressed in E. coli RIL and purified as previously described ([21], [55], [56]) using His-affinity and size exclusion chromatography. Briefly, E. coli RIL strains carrying the appropriate plasmid were grown in 1 L Luria broth (LB) (Merck Millipore) supplemented with kanamycin (100 µg/mL) with shaking (200 r.p.m.) at 37°C. When OD600 reached 0.5, 1 mM isopropyl-ß-D-1-thiogalactopyranoside (IPTG) was added to induce protein expression and cells were grown for 3 more hours. Cells were harvested by centrifugation (4,000 g, 4°C), resuspended in 40 mL buffer A (50 mM Tris-HCl pH 8.0, 0.5 M NaCl, 10% glycerol, and 1 mM phenylmethanesulfonyl fluoride), sonicated (4°C, 5 min with pulses of 15 sec at intervals of 1 min), and centrifuged (11,000 g, 4°C, 60 min). Supernatant was passed through a 5-mL HisTrap HP column (GE Healthcare) equilibrated in buffer A using the AKTA system (GE Healthcare). His-column was washed with buffer A (80 mL), and a linear gradient of imidazole (range 0 to 0.25 M) in buffer A was applied. The purest fractions evaluated by SDS-PAGE were collected, concentrated by ultrafiltration in a Amicon Ultra-15 (10- or 30-kDa exclusion) (Merck Millipore), and further purified by gel filtration using Superdex 200 column (GE Healthcare), equilibrated in buffer B (50 mM TrisHCl, pH 8.0, 0.2 M NaCl, and 5% glycerol). Purified proteins were then concentrated using ultrafiltration and stored at −80°C.
Autophosphorylation inhibition assays were performed in kinase assay buffer [100 mM Tris-HCl (pH 8.0), 5 mM MgCl2, 10 mM DTT], containing 5 µg of purified HK and 10 mM ATP for 30 min at 25°C. The reaction was stopped by adding gel loading buffer containing 16% SDS before loading the reaction on a 12% SDS-PAGE. […] The phosphorylated histidine was detected by western blotting by then incubating the membrane for 60 min with 1:1,000 anti-N1-phosphohistidine antibody (Merck Millipore) in TBS-T followed by a washing step for 30 min with TBS-T and a final 60-min incubation with 1:10,000 horseradish […] anti-rabbit IgG (Promega) in TBS-T. Chemiluminescent reaction was measured using Pierce ECL immunoblotting substrate (Thermo Scientific) in a LAS 3000 image analyzer (Fujifilm Life Science, Tokyo, Japan) followed by densitometric analysis using Multi Gauge image-analysis software (Fujifilm Life Science, Tokyo, Japan). The inhibitor concentrations required to halve the chemiluminescence intensity (IC50) were determined using Prism 4.1 (GraphPad Software, San Diego, CA, USA).

sheep red blood cells = assay: Haemolysis assay; assay type: cell-based; details: if considered to cause haemolysis to red blood cells
Procedure: The hemolysis assay was adapted from the study by Evans et al. ([65]). Briefly, sheep RBC 10% washed pooled cells in PBS (Rockland Immunochemicals, Limerick, PA, USA) were diluted 1:5 to give a final concentration of 2% RBCs in PBS. […] A non-treated control, 1% DMSO (vehicle control), and complete cell lysis control (Triton-X 2%) were included in each assay. After exposure samples were centrifuged at 4°C at 1,000 g for 15 min and 100 µL of supernatant transferred to a clean well in a 96-well, clear, flat-bottom plate (Corning Incorporated). Released hemoglobin was measured by absorption at 540 nm using a Spectramax M5 plate reader. The experiments were performed in quadruplicate. The percentage of hemolysis was calculated as follows:
Hemolysis=A540nm,testcondition−A540nm,DMSOcontrol/A540nm,TritonXControl−A540nm,DMSOcontrol

[1] = system: Escherichia coli ATCC 25922; assay: MIC (microdilution) against E. coli; assay type: cell-based; details: for MIC: Escherichia coli; for MIC E. coli: Table ST1
Procedure: (§2) Staphylococcus aureus str. Newman, Enterococcus faecalis vanA (strain E0155), Enterococcus faecium vanA (strain E1654), Escherichia coli ATCC 25922, Escherichia coli D21f2 with a truncated LPS barrier, Escherichia coli JW5503 (ΔtolC) ([49]), Pseudomonas aeruginosa ATCC 27853, and Pasteurella haemolytica ATCC 29701 were grown in Mueller-Hinton Broth (MHB) (Oxoid, Basingstoke, UK) and incubated at 37°C.
(§3) The minimal inhibitory concentration was determined using the microdilution method following the guidelines of the European Committee on Antimicrobial Susceptibility Testing ([50]). Briefly, a series of twofold dilutions in MHB of each compound were made in a 96-well plate, with final concentrations ranging from 50 to 0.39 µg/mL in 100 µL final volume per well. A hundred microliters of 1:100 dilution of an overnight culture of the correspondent bacteria in MHB was added to each well. Plates were incubated for 18 hours at 37°C. MIC was recorded as the lowest concentration where no growth was detected as measured by optical density at 600 nm (OD600) using Spectramax M5 (Molecular Devices LLC, San Jose, CA, USA). […] Wells containing bacteria with or without 1% DMSO and medium alone were included as controls in every plate.

E. coli EnvZ = molecular target: T1, E. coli EnvZ (Escherichia coli, UniProt P0AEJ4); assay: HK autophosphorylation inhibition, EnvZ; assay type: biochemical
T1 construct: Cytoplasmic domains from S. aureus PhoR and E. coli EnvZ; His6; made in house; host or cells: E. coli RIL
Procedure: as §1
Autophosphorylation inhibition assays were performed in kinase assay buffer [100 mM Tris-HCl (pH 8.0), 5 mM MgCl2, 10 mM DTT], containing 5 µg of purified HK and 10 mM ATP for 30 min at 25°C. The reaction was stopped by adding gel loading buffer containing 16% SDS before loading the reaction on a 12% SDS-PAGE. […] To detect autophosphorylation, the gel was transferred to a nitrocellulose membrane (GE Healthcare) at 100 V in the transfer buffer (25 mM Tris, 192 mM Glycine, 10% Methanol). The membrane was then blocked using Tris-buffered saline solution with 0.1% vol/vol Tween 20 (TBS-T) supplied with 5% bovine serum albumin. The phosphorylated histidine was detected by western blotting by then incubating the membrane for 60 min with 1:1,000 anti-N1-phosphohistidine antibody (Merck Millipore) in TBS-T followed by a washing step for 30 min with TBS-T and a final 60-min incubation with 1:10,000 horseradish […] anti-rabbit IgG (Promega) in TBS-T. Chemiluminescent reaction was measured using Pierce ECL immunoblotting substrate (Thermo Scientific) in a LAS 3000 image analyzer (Fujifilm Life Science, Tokyo, Japan) followed by densitometric analysis using Multi Gauge image-analysis software (Fujifilm Life Science, Tokyo, Japan). The inhibitor concentrations required to halve the chemiluminescence intensity (IC50) were determined using Prism 4.1 (GraphPad Software, San Diego, CA, USA).

[2] = system: Escherichia coli JW5503 (ΔtolC); assay: MIC (microdilution) against E. coli JW5503; assay type: cell-based; details: for MIC: Escherichia coli, read-out: MIC E. coli JW5503; for MIC E. coli JW5503: Table ST1, ΔtolC mutant
From the text: We also tested the inhibitory activity of compounds in two different E. coli mutants: (i) E. coli JW5503 that lacks TolC efflux pumps and (ii) E. coli D21f2 that has a defective LPS inner core increasing permeability of the outer membrane. E. coli D21f2 has a slightly higher susceptibility to DPP compounds than E. coli ATCC25922.
as §2, §3

[3] = ATCC25922, Table 1, read-out: MIC E. coli
[4] = ATCC25922, read-out: MIC E. coli
[5] = bound from first screening at 2 mM

S. aureus PhoR, sequence (Q2FXN7 entry or part of it): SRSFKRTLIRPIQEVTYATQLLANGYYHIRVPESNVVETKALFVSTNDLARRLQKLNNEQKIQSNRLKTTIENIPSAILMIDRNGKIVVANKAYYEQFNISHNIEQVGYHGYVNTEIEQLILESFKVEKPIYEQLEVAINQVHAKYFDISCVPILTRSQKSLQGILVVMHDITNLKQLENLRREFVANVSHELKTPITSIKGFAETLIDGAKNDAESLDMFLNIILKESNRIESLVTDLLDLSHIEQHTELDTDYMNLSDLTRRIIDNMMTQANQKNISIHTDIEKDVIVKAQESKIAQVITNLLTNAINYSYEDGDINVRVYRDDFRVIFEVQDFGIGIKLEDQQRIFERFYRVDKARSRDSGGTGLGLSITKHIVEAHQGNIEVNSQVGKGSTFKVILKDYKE
T1 sequence (P0AEJ4 180-450): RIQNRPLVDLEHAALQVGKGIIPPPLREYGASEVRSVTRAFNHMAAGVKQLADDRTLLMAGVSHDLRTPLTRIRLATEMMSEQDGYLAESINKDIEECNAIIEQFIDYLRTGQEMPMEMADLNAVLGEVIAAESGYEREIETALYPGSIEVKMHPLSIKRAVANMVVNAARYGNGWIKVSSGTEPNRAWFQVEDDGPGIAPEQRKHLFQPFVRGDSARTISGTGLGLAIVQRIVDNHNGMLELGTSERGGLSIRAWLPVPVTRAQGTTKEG

## COc1ccc(-c2[nH]nc(C(F)(F)F)c2-c2ccc(Cl)cc2)c(O)c1 [DPP-6]
S. aureus PhoR
  IC50: 55 ± 3.8 µM
Sheep red blood cells
  Haemolysis: YES
[1]; [3]
  MIC: > 250 µg/mL
[1]
  MIC E. coli: >250 µg/mL
E. coli EnvZ; ± SD, n = 2, 10 mM ATP
  IC50: 98 ± 11.8 µM
[2]
  MIC: 3.12 µg/mL (≈ 8.46 µM)
  MIC E. coli JW5503: 3.12 µg/mL (≈ 8.46 µM)

## Oc1ccc(-c2n[nH]c(C(F)(F)F)c2-c2ccc(Cl)cc2)c(O)c1 [DPP-5]
S. aureus PhoR
  IC50: 95 ± 5.6 µM
[1]; [3]
  MIC: 50 µg/mL (≈ 141 µM)
[1]
  MIC E. coli: 50 µg/mL (≈ 141 µM)
E. coli EnvZ; ± SD, n = 2, 10 mM ATP
  IC50: 117 ± 6.3 µM
[2]
  MIC: 3.12 µg/mL (≈ 8.8 µM)
  MIC E. coli JW5503: 3.12 µg/mL (≈ 8.8 µM)

## COc1ccc(-c2c(C(F)(F)F)n[nH]c2-c2ccc(O)cc2O)cc1 [DPP-12]
S. aureus PhoR
  IC50: 328 ± 4.1 µM
[1]; [4]
  MIC: > 250 µg/mL
[1]
  MIC E. coli: >250 µg/mL
E. coli EnvZ; ± SD, n = 2, 10 mM ATP
  IC50: 427 ± 9.1 µM
[2]
  MIC: 12.5 µg/mL (≈ 35.7 µM)
  MIC E. coli JW5503: 12.5 µg/mL (≈ 35.7 µM)

## COc1ccc(-c2c(C(F)(F)F)n[nH]c2-c2ccc(OC)cc2O)cc1 [DPP-13]
S. aureus PhoR
  IC50: 89 ± 6.9 µM
[1]; [4]
  MIC: > 250 µg/mL
[1]
  MIC E. coli: >250 µg/mL
E. coli EnvZ; ± SD, n = 2, 10 mM ATP
  IC50: 175 ± 10.1 µM
[2]
  MIC: 12.5 µg/mL (≈ 34.3 µM)
  MIC E. coli JW5503: 12.5 µg/mL (≈ 34.3 µM)

## COc1ccc(-c2[nH]nc(C(F)(F)F)c2-c2ccccc2)c(O)c1 [DPP-2]
Sheep red blood cells
  Haemolysis: MILD
[1]; [3]
  MIC: > 250 µg/mL
[1]
  MIC E. coli: >250 µg/mL
E. coli EnvZ; [5]
  IC50: < 2000 µM
[2]
  MIC: 6.25 µg/mL (≈ 18.7 µM)
  MIC E. coli JW5503: 6.25 µg/mL (≈ 18.7 µM)

## CCOc1ccc(-c2[nH]nc(C(F)(F)F)c2-c2ccc(Cl)cc2)c(O)c1 [DPP-7]
Sheep red blood cells
  Haemolysis: YES
[1]; [3]
  MIC: > 250 µg/mL
[1]
  MIC E. coli: >250 µg/mL
E. coli EnvZ; [5]
  IC50: < 2000 µM
[2]
  MIC: 3.12 µg/mL (≈ 8.15 µM)
  MIC E. coli JW5503: 3.12 µg/mL (≈ 8.15 µM)
